In patent US10266528B2, “2-oxo-imidazopyridines as reversible BTK inhibitors and uses thereof” (Merck Patent GmbH, priority 2016, dated 2019):
pIC50: −log10 of the molar value.

What was measured:
[1] = system: anti-IgM-induced expression of CD69 in human peripheral blood mononuclear cells (PBMCs); assay: PBMC IC50 assay: anti-IgM-induced CD69 expression on CD19 positive cells; format: cell-based; conditions: anti-IgM stimulation, CD69 expression on CD19 positive B cells
Method: Btk is critical for mediating the signalling of B cell antigen receptor (BCR) after anti-IgM stimulation. Based on this principle, a functional cell-based assay was established to determine the potency of compounds at inhibiting anti-IgM-induced expression of CD69, a downstream BCR signaling event, in freshly isolated human peripheral blood mononuclear cells (PBMCs). In the assay, a 90 μl PBMC suspension containing 2.5×10^5 cells was pre-treated with 10 μl of test compound at various concentrations for an hour, and then incubated overnight (approximately 16-18 hours) with 5 μl 420 μg/ml affiniPure F(ab′)2 fragment goat anti-human IgM Fc fragment per well (Dianova, Cat. No.: 109-006-129). After the incubation, the cells were washed and immunostained with an APC-labeled mouse anti-human CD69 (BD Biosciences; clone: FN50), a PerCP-Cy5.5 labelled mouse anti-human CD19 (BD Biosciences; clone: SJ25C1) and a FITC-labelled mouse anti-human CD3 (BD Biosciences; clone: HIT3a), and fixed for flow cytometric analysis of CD69 expression on CD19 positive cells (B cells). The percentage of CD69 expressing CD19 positive cells was plotted against the concentrations of test compounds to obtain a concentration response curve, and calculate an IC50 value as a measure of the potency of test compounds in the assay.

full-length human BTK = full-length human BTK (Homo sapiens (Human), UniProt Q06187); assay: Microfluidic off-chip mobility shift kinase assay against BTK enzyme; format: biochemical; conditions: 90 min at 27° C.
full-length human BTK, sequence (Q06187 whole entry): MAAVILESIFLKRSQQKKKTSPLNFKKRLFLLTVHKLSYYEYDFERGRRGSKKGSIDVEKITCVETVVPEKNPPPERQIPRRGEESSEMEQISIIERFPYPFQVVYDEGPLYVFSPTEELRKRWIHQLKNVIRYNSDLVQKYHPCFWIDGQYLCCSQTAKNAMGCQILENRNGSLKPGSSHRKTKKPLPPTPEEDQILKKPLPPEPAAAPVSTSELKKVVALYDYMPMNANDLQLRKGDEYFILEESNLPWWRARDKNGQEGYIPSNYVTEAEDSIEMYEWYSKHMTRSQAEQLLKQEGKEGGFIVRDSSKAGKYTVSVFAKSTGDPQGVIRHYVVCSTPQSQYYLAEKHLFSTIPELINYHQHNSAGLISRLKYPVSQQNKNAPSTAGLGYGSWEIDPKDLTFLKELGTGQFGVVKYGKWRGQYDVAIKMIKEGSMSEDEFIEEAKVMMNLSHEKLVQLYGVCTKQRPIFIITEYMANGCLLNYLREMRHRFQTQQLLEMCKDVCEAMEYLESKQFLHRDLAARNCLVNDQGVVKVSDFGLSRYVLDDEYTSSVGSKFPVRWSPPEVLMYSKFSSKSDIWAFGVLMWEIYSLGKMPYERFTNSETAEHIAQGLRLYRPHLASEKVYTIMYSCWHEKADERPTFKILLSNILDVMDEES
Method: Example 23. Microfluidic Off-Chip Mobility Shift Assay Protocol for Potency Assessment Against BTK Enzyme
The protocol below describes microfluidic, off-chip mobility shift kinase assay to measure inherent potency of compounds against BTK enzyme.
5 uL of enzyme buffer and 7.5 uL of ATP/kinKDR peptide substrate mix were added to Matrix (#115304) 384-well, sterile, polypropylene plates (Thermo Fisher Scientific, Hudson, N.H.) with 125 nL of serially diluted compounds prepared in 100% DMSO, and incubated for 90 min. at 27° C. Following the incubation period, reactions were stopped by adding 60 uL stop buffer consisting of 100 mM HEPES, pH 7.5, 0.015% Brij-35 (30%), 0.277% Coating Reagent #3 (Caliper Life Sciences, Mountain View, Calif.), 5% DMSO. Stopped reactions were monitored at −2 PSI, −3000 V/−700 V in a LabChip 3000 plate reader from Caliper Life Sciences, a PerkinElmer Company (Hopkinton, Mass.), and the activity was measured by off-chip mobility shift assay measuring the charge/mass difference between substrate and product resulting from peptide phosphorilation. IC50 and efficacy were determined by plotting log [Inhibitor] vs. % Activity in GeneData Screener (Basel, Switzerland).

WB = WB IC50 (no method described); format: cell-based

| SMILES | pIC50 ([1]; Homo sapiens, PBMC) | pIC50 (full-length human BTK) | pIC50 (WB) | pIC50 [1] |
| --- | --- | --- | --- | --- |
| Cc1cc(-c2ccnc3[nH]c(=O)[nH]c23)ccc1CNC(=O)c1nc(C(C)(C)C)no1 [Compound 23, 3-tert-Butyl-[1,2,4]oxadiazole-5-carboxylic Acid 2-methyl-4-(2-oxo-2,3-dihydro-1H-imidazo[4,5-b]pyridin-7-yl)-benzylamide] | 7.00 to 8.00 | > 8.00 | 7.00 to 8.00 |  |
| O=C(NCc1ccc(-c2ccnc3[nH]c(=O)[nH]c23)cc1F)NCC1CC2CCC1C2 (centres unmarked) [Compound 4, 1-Bicyclo[2.2.1]hept-2-ylmethyl-3-[2-fluoro-4-(2-oxo-2,3-dihydro-1H-imidazo[4,5-b]pyridin-7-yl)-benzyl]-urea] | < 6.00 | 7.00 to 8.00 |  |  |
| CC(C)(C)c1noc(C(=O)NC2CCCCc3cc(-c4ccnc5[nH]c(=O)[nH]c45)ccc32)n1 (single isomer, unassigned) [Compound 13, 3-tert-Butyl-[1,2,4]oxadiazole-5-carboxylic Acid [2-(2-oxo-2,3-dihydro-1H-imidazo[4,5-b]pyridin-7-yl)-6,7,8,9-tetrahydro-5H-benzocyclohepten-5-yl]-amide] |  | 7.00 to 8.00 |  |  |
| CC(C)(C)c1noc(C(=O)NCc2ccc(-c3ccnc4[nH]c(=O)[nH]c34)cc2C(F)(F)F)n1 [Compound 1, 3-tert-Butyl-[1,2,4]oxadiazole-5-carboxylic Acid 4-(2-oxo-2,3-dihydro-1H-imidazo[4,5-b]pyridine-7-yl)-2-trifluoromethyl-benzylamide] | 6.00 to 7.00 | > 8.00 | 6.00 to 7.00 |  |
| CC(C)(C)c1noc(C(=O)NC2CCCCc3cc(-c4ccnc5[nH]c(=O)[nH]c45)ccc32)n1 (centres unmarked) [Compound 12, 3-tert-Butyl-[1,2,4]oxadiazole-5-carboxylic Acid [2-(2-oxo-2,3-dihydro-1H-imidazo[4,5-b]pyridin-7-yl)-6,7,8,9-tetrahydro-5H-benzocyclohepten-5-yl]-amide] | > 8.00 | > 8.00 |  |  |
| CC(C)(C)c1cc(C(=O)NC2CCCCc3cc(-c4ccnc5[nH]c(=O)[nH]c45)ccc32)on1 (centres unmarked) [Compound 14, Butyl-isoxazole-5-carboxylic Acid [2-(2-oxo-2,3-dihydro-1H-imidazo[4,5-b]pyridin-7-yl)-6,7,8,9-tetrahydro-5H-benzocyclohepten-5-yl]-amide] | 6.00 to 7.00 |  |  |  |
| CC(C)(C)c1nnc(C(=O)NCc2ccc(-c3ccnc4[nH]c(=O)[nH]c34)cc2F)o1 [Compound 7, 5-tert-Butyl-[1,3,4]oxadiazole-2-carboxylic Acid 2-fluoro-4-(2-oxo-2,3-dihydro-1H-imidazo[4,5-b]pyridin-7-yl)-benzylamide] |  | 6.00 to 7.00 |  |  |
| CC(C)(C)c1nc(C(=O)NCc2ccc(-c3ccnc4[nH]c(=O)[nH]c34)cc2C(F)(F)F)no1 [Compound 19, 5-tert-Butyl-[1,2,4]oxadiazole-3-carboxylic Acid 4-(2-oxo-2,3-dihydro-1H-imidazo[4,5-b]pyridin-7-yl)-2-trifluoromethyl-benzylamide] |  | > 8.00 |  |  |
| CC(C)(C)c1noc(C(=O)NC2CCCc3cc(-c4ccnc5[nH]c(=O)[nH]c45)ccc32)n1 (centres unmarked) [Compound 15, 3-tert-Butyl-[1,2,4]oxadiazole-5-carboxylic Acid [6-(2-oxo-2,3-dihydro-1H-imidazo[4,5-b]pyridin-7-yl)-1,2,3,4-tetrahydro-naphthalen-1-yl]-amide] |  | 7.00 to 8.00 |  |  |
| Cc1cc(-c2ccnc3[nH]c(=O)[nH]c23)c(F)cc1CNC(=O)c1nc(C(C)(C)C)no1 [Compound 16, 3-tert-Butyl-[1,2,4]oxadiazole-5-carboxylic Acid 5-fluoro-2-methyl-4-(2-oxo-2,3-dihydro-1H-imidazo[4,5-b]pyridin-7-yl)-benzylamide] | 6.00 to 7.00 | > 8.00 |  |  |
| CC1(C)Cc2cc3n(c2C1)CCN(c1cc(F)cc(-c2ccnc4[nH]c(=O)[nH]c24)c1CO)C3=O [Compound 21, 2-[5-Fluoro-2-hydroxymethyl-3-(2-oxo-2,3-dihydro-1H-imidazo[4,5-b]pyridin-7-yl)-phenyl]-7,7-dimethyl-3,4,7,8-tetrahydro-2H,6H-cyclopenta[4,5]pyrrolo[1,2-a]pyrazin-1-one] |  | > 8.00 |  |  |
| CC(C)(C)c1noc(C(=O)NCc2ccc(-c3ccnc4[nH]c(=O)[nH]c34)cc2C2CC2)n1 [Compound 17, 3-tert-Butyl-[1,2,4]oxadiazole-5-carboxylic Acid 2-cyclopropyl-4-(2-oxo-2,3-dihydro-1H-imidazo[4,5-b]pyridin-7-yl)-benzylamide] | 6.00 to 7.00 | > 8.00 |  |  |
| CC(C)(C)c1noc(C(=O)NC2CCCCc3cc(-c4ccnc5[nH]c(=O)[nH]c45)ccc32)n1 (centres unmarked) [Compound 11, 3-tert-Butyl-[1,2,4]oxadiazole-5-carboxylic Acid [2-(2-oxo-2,3-dihydro-1H-imidazo[4,5-b]pyridin-7-yl)-6,7,8,9-tetrahydro-5H-benzocyclohepten-5-yl]-amide] |  | > 8.00 |  | 7.00 to 8.00 |
| CC(C)(C)C1CCN(C(=O)NCc2ccc(-c3ccnc4[nH]c(=O)[nH]c34)cc2F)C1 (centres unmarked) [Compound 5, 3-tert-Butyl-pyrrolidine-1-carboxylic Acid 2-fluoro-4-(2-oxo-2,3-dihydro-1H-imidazo[4,5-b]pyridin-7-yl)-benzylamide] |  | 7.00 to 8.00 |  |  |
| CC1(c2noc(C(=O)NCc3ccc(-c4ccnc5[nH]c(=O)[nH]c45)cc3C(F)(F)F)n2)CC1 [Compound 18, 3-(1-Methyl-cyclopropyl)-[1,2,4]oxadiazole-5-carboxylic Acid 4-(2-oxo-2,3-dihydro-1H-imidazo[4,5-b]pyridin-7-yl)-2-trifluoromethyl-benzylamide] | 7.00 to 8.00 | > 8.00 | 6.00 to 7.00 |  |
| CC(C)(C)c1nc(C(=O)NCc2ccc(-c3ccnc4[nH]c(=O)[nH]c34)cc2F)cs1 [Compound 6, 2-tert-Butyl-thiazole-4-carboxylic Acid 2-fluoro-4-(2-oxo-2,3-dihydro-1H-imidazo[4,5-b]pyridin-7-yl)-benzylamide] |  | 7.00 to 8.00 |  |  |
| CC(C)(C)c1noc(C(=O)NCc2ccc(-c3ccnc4[nH]c(=O)[nH]c34)cc2F)n1 [Compound 2, 3-tert-Butyl-[1,2,4]oxadiazole-5-carboxylic Acid 2-fluoro-4-(2-oxo-2,3-dihydro-1H-imidazo[4,5-b]pyridine-7-yl)-benzylamide] | 6.00 to 7.00 | > 8.00 | 6.00 to 7.00 |  |
| CC(C)(C)c1nc(C(=O)NCc2ccc(-c3ccnc4[nH]c(=O)[nH]c34)cc2F)no1 [Compound 3, 5-tert-Butyl-[1,2,4]oxadiazole-3-carboxylic Acid 2-fluoro-4-(2-oxo-2,3-dihydro-1H-imidazo[4,5-b]pyridin-7-yl)-benzylamide] |  | 7.00 to 8.00 |  |  |
| CC(C)(C)c1ccc(C(=O)NCc2ccc(-c3ccnc4[nH]c(=O)[nH]c34)cc2F)cn1 [Compound 8, 6-tert-Butyl-N-[2-fluoro-4-(2-oxo-2,3-dihydro-1H-imidazo[4,5-b]pyridin-7-yl)-benzyl]-nicotinamide] |  | < 6.00 |  |  |
| CC1(C)Cc2cc3n(c2C1)CCN(c1cc(F)cc(-c2ccnc4[nH]c(=O)[nH]c24)c1)C3=O [Compound 22, 2-[3-Fluoro-5-(2-oxo-2,3-dihydro-1H-imidazo[4,5-b]pyridin-7-yl)-phenyl]-7,7-dimethyl-3,4,7,8-tetrahydro-2H,6H-cyclopenta[4,5]pyrrolo[1,2-a]pyrazin-1-one] |  | 7.00 to 8.00 |  |  |
| CC(C)(O)c1ccc(C(=O)NCc2ccc(-c3ccnc4[nH]c(=O)[nH]c34)cc2F)cc1 [Compound 9, N-[2-Fluoro-4-(2-oxo-2,3-dihydro-1H-imidazo[4,5-b]pyridin-7-yl)-benzyl]-4-(1-hydroxy-1-methyl-ethyl)-benzamide] |  | < 6.00 |  |  |
| CC(C)(C)c1noc(C(=O)NCc2ccc(-c3ccnc4[nH]c(=O)[nH]c34)c(CO)c2)n1 [Compound 10, 3-tert-Butyl-[1,2,4]oxadiazole-5-carboxylic Acid 3-hydroxymethyl-4-(2-oxo-2,3-dihydro-1H-imidazo[4,5-b]pyridin-7-yl)-benzylamide] |  | < 6.00 |  |  |
